Source: patent US20220288004A1, “TREATMENT AND PREVENTION OF AGING RELATED-DISEASE AND/OR AGING BY THE INHIBITION OF SPHINGOLIPIDS” (ECOLE POLYTECHNIQUE FEDERALE DE LAUSANNE (EPFL), priority 2019, published 2022)

Legend:
[1] = system: muscle stem cells (MuSCs); assay: MuSC count in muscle of treated aged mice (FACS, PAX7 immunostaining); assay type: in vivo, mouse
Description: Muscle stem cells (MuSCs) are capable of giving rise to mature muscle fibers, and their regenerative capacity has been reported to be impaired upon aging. […] Consistent with this, PAX7 expression correlated negatively with the first PC of the ceramide synthetic pathway in both human (FIG. 3e) and mouse (FIG. 3f) skeletal muscle. To study whether increased Pax7 transcript abundance in skeletal muscle reflects elevated MuSC count, a7 integrin/CD34 double positive cells were isolated from the hind-limbs using fluorescence-activated cell sorting (FACS).
Stem cell isolation. Gastrocnemius, soleus, and quadriceps muscles from both hindlimbs were excised and transferred into PBS on ice. […] Stained cells were analyzed and sorted using the FACSAria II instrument (BD Biosciences). […]
Histology. […] Microscopy images of fluorescence from muscle fibers were analyzed using the ImageJ software. Centralized nuclei percent, minimal Feret diameter and cross-sectional area in TA muscles were determined using the ImageJ software quantification of laminin, dystrophin, and DAPI-stained muscle images from VS120-S6-W slides scanner (Olympus). […] The mean cross-sectional area of muscle fibers was calculated as the average cross-sectional area of 2,000 fibers per from sample. 7-8 mouse samples per condition were used for histological quantification of donor mice. […] For each quantification, 3 or more mice were used.

[2] = system: freshly isolated MuSCs from aged C57BL/6JRj mice; assay: Ex vivo analysis of MuSCs cultured in myriocin containing medium; assay type: cell-based, mouse
Experimental: Ex vivo analysis of MuSCs. MuSCs were isolated as described above, and seeded in 96- or 48-well plates. The cells were incubated in 30 μM myriocin containing medium (Ham's F-10 nutrient mixture, FBS 20%, basic fibroblast growth factor 2.5 ng/mL, penicillin 100 U/mL, streptomycin 100 μg/mL) for 72 hours. PFA 4% was applied for 15 min, the cells were washed three times for 10 min with PBS, and were blocked in 2% BSA in PBS. The cells were then incubated in primary antibodies MYOD (1:50, LabForce) and MYOG (1:50, Santa Cruz) overnight at 4° C. Secondary antibodies were coupled with Alexa-488 or Alexa-568 fluorochromes (Life Technology) and mounted with Dako Mounting Medium. Leica DMI 4000 microscope was used to image the cells. Quantification of the MYOD+ and MYOG+ cell number was based on more than 500 cells per condition.

mdx mice = assay: Transplantation of MuSCs from myriocin treated donors into cardiotoxin-injured mdx recipients; assay type: in vivo, mouse
Description: Decline in tissue regenerative potential is a major hallmark of mammalian aging, including skeletal muscle. It was next asked the question whether myriocin treatment induces functional improvement of MuSCs, boosting their regenerative capacity. MuSCs from aged mice treated or untreated with myriocin for 5 months were isolated, and transplanted into tibialis anterior (TA) muscles of recipient mice. The recipient mice were either aged (20-month-old) C57Bl/6JRj or aged (1-year-old) mdx mice, a mouse model of Duchenne muscular dystrophy lacking dystrophin protein (FIG. 4a). Before MuSC transplantation, injury was induced by cardiotoxin injection to TA of all recipient mice. […] At both 7 and 14 days after transplantation the inflammatory area was also smaller (FIG. 12a-b) in mdx recipients of MuSCs isolated from myriocin treated mice. […] Thus, transplantation of MuSCs derived from myriocin treated donors induce major morphological improvements following cardiotoxin-induced muscle injury.
Cardiotoxin-induced muscle damage and MuSC transplantation. […]
Histology. […] Microscopy images of fluorescence from muscle fibers were analyzed using the ImageJ software. Centralized nuclei percent, minimal Feret diameter and cross-sectional area in TA muscles were determined using the ImageJ software quantification of laminin, dystrophin, and DAPI-stained muscle images from VS120-S6-W slides scanner (Olympus). […] The mean cross-sectional area of muscle fibers was calculated as the average cross-sectional area of 2,000 fibers per from sample. 7-8 mouse samples per condition were used for histological quantification of donor mice. The eMyHC quantification is expressed as proportion of eMyHC positive signal over total TA cross sectional area. Following MuSC injection in CTX injected recipient mice, inflammation representing the regenerative stage of muscle was quantified by ImageJ software as proportion of inflammatory area over total area of the TA muscle cross section. The PAX7-positive cells were quantified as the average number of cells per field of more than 30 randomly chosen fields from a mouse TA. […]

[3] = system: human primary myoblasts from IBM donors; assay: Proteostat staining of IBM patient myoblasts; assay type: cell-based; conditions: 30 μM MYR for 24 h
Experimental: FIG. 16. Quantitative Proteostat signal normalized over the number of cells in human primary myoblasts from IBM donors (above) and APPSwe-expressing C2C12 myoblasts (below) decreases after treatment with 30 μM MYR for 24 h. Values are expressed as mean±s.e.m. ***P:0.001; ****P:0.0001. Differences between two groups were assessed using Student's two-tailed t-tests (error bars: 95% confidence intervals).
Cell lines from IBM patients featuring impaired proteostasis were obtained. This was validated using Proteostat staining which targets general disruption in proteostasis.

For CCCCCCC(=O)CCCCCCC=CCC(O)C(O)C(N)(CO)C(=O)O (stereo not shown) [myriocin, 2-Amino-3,4-dihydroxy-2-(hydroxymethyl)-14-oxoicos-6-enoic acid], the “number of PAX7+ muscle cells in TA tissue sections” value ([1]; aged myriocin treated mice) was “elevated number”, the “number of MuSCs in hindlimbs (a7 integrin/CD34 double positive cells, FACS)” value ([1]; young, aged, and aged myriocin treated mice) was “restored the MuSC pool of aged mice close to that of young mice” and the MYOD protein level ([2]; 30 μM myriocin, 72 h, vs DMSO) was “elevated”. The MYOG protein level ([2]; 30 μM myriocin, 72 h, vs DMSO) was “elevated”, the “Ki67+ MuSC count” value ([2]; MuSCs from untreated aged mice, 72 h in myriocin containing medium vs DMSO) was “higher” and the “inflammatory area of TA” value (mdx mice; 7 and 14 days after transplantation) was “smaller”. The “count of PAX7+ cells in TA” value (mdx mice; 7 days after transplantation) was “elevated count”, the “myogenesis of dystrophin-positive fibers” value (mdx mice; 7 days after transplantation) was “stimulated myogenesis” and the “Proteostat signal normalized over the number of cells (protein aggregates)” value [3] was “clearing protein aggregates”. For the same molecule, the “Proteostat signal normalized over the number of cells (protein aggregates)” value ([3]; listed as MYR) was “decreases”.
